The source of these data is patent US6713515B2, “Retinoic acid receptor antagonists as promoters of angiogenesis” (Bristol Myers Squibb Company, priority 2000, dated 2004).

pEC50, pIC50, pKd: −log10 of the molar value. “Also recorded” adds a separate entry of the source.

As usually defined, the pKd is the Kd on a negative log10 scale, so that one unit is a factor of ten. The term pIC50 denotes −log10 of the IC50, conventionally taken in molar units. A lower pIC50 goes with a high IC50. As usually defined, the pEC50 is the EC50 on a negative log10 scale, so that one unit is a factor of ten. The low end stands for a large EC50, the high end for a small EC50.

In test [1] the target is T1, RAR-β (Homo sapiens, UniProt P10826). Put plainly: Receptor transactivation, GAL4-RAR chimeric receptor/CAT reporter in HeLa cells. Format: cell-based.
T1 sequence (P10826 with tags, fused parts or gaps limits assumed, species assumed): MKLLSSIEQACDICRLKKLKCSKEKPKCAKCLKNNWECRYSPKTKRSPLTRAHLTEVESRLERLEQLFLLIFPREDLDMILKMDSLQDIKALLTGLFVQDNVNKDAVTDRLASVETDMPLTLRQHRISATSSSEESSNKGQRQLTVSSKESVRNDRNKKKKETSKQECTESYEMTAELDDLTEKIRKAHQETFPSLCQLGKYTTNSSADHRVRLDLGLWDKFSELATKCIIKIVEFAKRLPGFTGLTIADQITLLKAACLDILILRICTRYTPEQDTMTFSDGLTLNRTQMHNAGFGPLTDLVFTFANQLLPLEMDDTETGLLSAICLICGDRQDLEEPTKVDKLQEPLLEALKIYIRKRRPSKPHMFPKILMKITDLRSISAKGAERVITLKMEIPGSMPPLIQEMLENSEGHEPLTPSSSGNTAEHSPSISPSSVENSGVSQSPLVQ
Test [2] addresses T2, RAR-γ (Homo sapiens, UniProt P13631). Described as above. The conditions noted are these: 24 hours. The class given is cell-based.
T2 sequence (P13631 with tags, fused parts or gaps limits assumed, species assumed): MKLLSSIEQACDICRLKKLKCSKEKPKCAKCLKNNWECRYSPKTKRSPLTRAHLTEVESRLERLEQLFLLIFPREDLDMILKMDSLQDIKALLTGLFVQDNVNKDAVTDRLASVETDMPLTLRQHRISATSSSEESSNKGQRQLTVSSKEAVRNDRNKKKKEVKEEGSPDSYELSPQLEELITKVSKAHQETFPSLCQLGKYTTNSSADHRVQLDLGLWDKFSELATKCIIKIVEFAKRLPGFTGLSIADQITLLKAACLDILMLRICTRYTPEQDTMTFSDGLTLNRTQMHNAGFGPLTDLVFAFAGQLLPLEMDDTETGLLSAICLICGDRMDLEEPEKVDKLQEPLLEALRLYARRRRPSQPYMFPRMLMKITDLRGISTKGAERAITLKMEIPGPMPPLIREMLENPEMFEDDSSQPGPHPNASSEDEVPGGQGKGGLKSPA
Test [3] concerns the target T3, RAR-α (Homo sapiens, UniProt P10276). Described as above. The class given is cell-based. The conditions noted are these: 24 hours.
T3 sequence (P10276 with tags, fused parts or gaps limits assumed, species assumed): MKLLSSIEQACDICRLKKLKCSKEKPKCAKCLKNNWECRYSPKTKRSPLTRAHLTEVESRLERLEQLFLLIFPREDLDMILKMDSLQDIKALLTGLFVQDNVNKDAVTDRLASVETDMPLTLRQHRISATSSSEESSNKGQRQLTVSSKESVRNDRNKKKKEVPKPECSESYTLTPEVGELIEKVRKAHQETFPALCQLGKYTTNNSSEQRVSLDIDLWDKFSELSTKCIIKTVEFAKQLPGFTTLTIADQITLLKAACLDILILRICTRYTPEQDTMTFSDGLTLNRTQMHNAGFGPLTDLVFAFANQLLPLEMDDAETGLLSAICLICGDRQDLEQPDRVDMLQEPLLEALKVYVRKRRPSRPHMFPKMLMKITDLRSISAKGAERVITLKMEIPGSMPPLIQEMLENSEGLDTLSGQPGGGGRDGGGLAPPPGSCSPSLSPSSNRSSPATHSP
For test [4], the target named is T4, RAR-α (Homo sapiens, UniProt P10276).
T4 sequence (P10276 1-462): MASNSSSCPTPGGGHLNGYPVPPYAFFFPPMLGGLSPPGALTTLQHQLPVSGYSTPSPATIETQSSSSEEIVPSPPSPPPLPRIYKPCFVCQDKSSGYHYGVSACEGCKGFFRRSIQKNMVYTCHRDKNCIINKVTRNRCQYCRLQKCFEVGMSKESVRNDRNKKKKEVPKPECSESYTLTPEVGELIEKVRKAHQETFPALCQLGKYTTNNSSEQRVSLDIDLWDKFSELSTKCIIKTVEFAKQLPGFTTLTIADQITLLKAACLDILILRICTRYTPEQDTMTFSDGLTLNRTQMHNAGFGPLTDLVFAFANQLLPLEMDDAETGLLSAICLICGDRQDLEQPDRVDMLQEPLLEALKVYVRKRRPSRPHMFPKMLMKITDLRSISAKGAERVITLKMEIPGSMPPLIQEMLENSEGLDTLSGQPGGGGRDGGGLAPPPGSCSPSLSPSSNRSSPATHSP
Description: Receptor binding competition assay with radioactive t-RA. The note with it: apparent Kd from competition with radioactive t-RA, recombinant RAR; read-out: Direct Binding RAR-α Kd.

In test [5] the target is T3, RAR-α. Put plainly: Transactivation competition assay (antagonist activity) in transfected HeLa cells. Format: cell-based. The note with it: for Competition RAR-α % MAX: inhibition of transactivation by 10^−7 M t-RA, 16 hours. How it is done:
(§1) Antagonist Activity Antagonist activity of the test retinoids was evaluated by a transactivation competition assay. Transfected HeLa cells were treated for 16 hours with 10^−7 M t-RA, with or without test retinoids, at concentrations of 10^−8 to 10^−5 M. The cells were then harvested and assayed for CAT activity. The antagonist activity was determined as an IC50 for the inhibition of transactivation produced by t-RA.

The target in test [6] is T2, RAR-γ. Described as above. The class given is cell-based. The note with it: for Competition RAR-γ % MAX: inhibition of transactivation by 10^−7 M t-RA, 16 hours. On the procedure:
as §1

Test [7] addresses T1, RAR-β. Described as above. The note with it: for Competition RAR-β % MAX: inhibition of transactivation by 10^−7 M t-RA, 16 hours. Format: cell-based.
The target of test [8] is T5, RAR-γ (Homo sapiens, UniProt P13631).
T5 sequence (P13631 1-454): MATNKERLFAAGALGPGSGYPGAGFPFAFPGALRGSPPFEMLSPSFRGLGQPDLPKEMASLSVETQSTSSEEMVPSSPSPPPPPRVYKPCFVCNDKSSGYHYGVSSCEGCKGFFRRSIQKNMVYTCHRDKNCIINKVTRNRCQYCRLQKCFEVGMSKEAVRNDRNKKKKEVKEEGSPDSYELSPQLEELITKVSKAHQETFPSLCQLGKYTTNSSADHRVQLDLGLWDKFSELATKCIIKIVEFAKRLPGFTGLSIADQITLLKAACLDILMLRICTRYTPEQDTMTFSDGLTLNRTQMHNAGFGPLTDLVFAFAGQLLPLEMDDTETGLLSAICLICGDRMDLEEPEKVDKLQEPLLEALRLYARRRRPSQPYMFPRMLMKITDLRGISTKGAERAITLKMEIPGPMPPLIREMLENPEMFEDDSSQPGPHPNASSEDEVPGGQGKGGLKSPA
Description: Receptor binding competition assay with radioactive t-RA. The note with it: for pKd: apparent Kd from competition with radioactive t-RA, recombinant RAR, read-out: Direct Binding RAR-γ Kd.

For another test, the system named is C57BL/KsJ mice. Put plainly: Skin flap model of angiogenesis. Format: in vivo. On the procedure: The skin flap model is a suitable in vivo approach to monitor the angiogenic response because it requires restoration of the disrupted blood vessel network that is impaired at the distal edge of the flap. A single application of vehicle (ethanol) or different concentrations of Compound 5 were performed. The results were monitored one and two weeks after the initiation of the experiment.
Sections were deparaffinized in xylene and rehydrated in a series of ethanol/water solutions. A 4% mouse non-immune serum in PBS was used for blocking. Monoclonal anti-PECAM-1 antibody (CD31, Sigma) was used at 1:100 dilution. FITC-conjugated anti-mouse IgG antibody (Sigma) was further applied to the sections at 1:200 dilution. Visualization was performed on an Olympus fluorescent microscope.
Female C57BL/KsJ mice were purchased from Jackson Labs (Bar Harbor, Me., USA) at the age of 6 weeks. Animals were acclimated for at least 2 weeks and housed 4 per cage with free access to water and food under 12 h light/dark cycle at a temperature of 23±2° C. and a humidity of 55±10%.
The mice were anesthetized by an IP injection of xyalazine/ketamine, the hair at the back clipped and the surface sterilized with 70% ethanol. A 3-way, full-thickness incision was introduced with the use of a scalpel, the skin flap separated from underlying tissues, the compound or vehicle applied, and the skin repositioned and sutured. Mice were housed individually after the procedure. The animals were sacrificed by CO2 inhalation and tissues were fixed in formalin, embedded in paraffin and evaluated histologically or immunocytochemically.

For test [9], the target named is T6, RAR-β (Homo sapiens, UniProt P10826).
T6 sequence (P10826 1-455): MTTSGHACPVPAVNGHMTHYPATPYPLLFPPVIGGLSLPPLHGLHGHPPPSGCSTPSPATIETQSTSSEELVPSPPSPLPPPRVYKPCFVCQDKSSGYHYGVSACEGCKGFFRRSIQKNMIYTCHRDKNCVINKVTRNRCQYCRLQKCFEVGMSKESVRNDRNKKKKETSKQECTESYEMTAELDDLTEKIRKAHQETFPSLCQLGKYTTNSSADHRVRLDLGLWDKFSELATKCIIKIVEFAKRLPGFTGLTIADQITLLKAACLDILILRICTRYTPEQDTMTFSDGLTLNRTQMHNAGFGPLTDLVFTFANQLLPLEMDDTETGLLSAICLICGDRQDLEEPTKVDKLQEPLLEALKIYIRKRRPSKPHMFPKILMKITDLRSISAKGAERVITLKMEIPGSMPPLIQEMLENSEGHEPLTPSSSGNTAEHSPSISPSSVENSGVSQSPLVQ
Put plainly: Receptor binding competition assay with radioactive t-RA. The conditions noted are these: apparent Kd from competition with radioactive t-RA, recombinant RAR; read-out: Direct Binding RAR-β Kd.

With `CC1=C(/C=C/C(C)=C/C=C/C(C)=C/C(=O)O)C(C)(C)CCC1` [All Trans RA, all trans retinoic acid, reference compound], the “Transactivation RAR-β % MAX” value at RAR-β [1] (HeLa cells, 24 hours) was determined as 100%. The “Transactivation RAR-γ % MAX” value at RAR-γ [2] was determined as 100%. For the same molecule, the “Transactivation RAR-α % MAX” value at RAR-α [3] stood at 100%.

On to `CC1(C)CC=C(c2ccccc2)c2cc(/C=C/c3ccc(C(=O)O)cc3)ccc21` [Compound 4, (E)-4-[2-(5,6-dihydro-5,5-dimethyl-8-phenyl-2-naphthalenyl)ethenyl]benzoic acid], for which the negative-log Kd (pKd) on RAR-α [4] is 9.00. At RAR-α [5], the negative-log IC50 (pIC50) was 6.70 and the “Competition RAR-α % MAX” value is recorded as 100%. Moreover, on RAR-γ [6], the pIC50 was 6.70 and the “Competition RAR-γ % MAX” value worked out at 100%. Besides, the “Transactivation RAR-β % MAX” value at RAR-β [1] (HeLa cells, 24 hours) is listed as 20%. In addition, the “RARβ transactivation (agonistic) activity, in words” value on RAR-β [1] (reporter transactivation assays) was “weak RARβ transactivation activity; also recorded: weak RARβ agonistic activity”. The “Competition RAR-β % MAX” value on RAR-β [7] is 80%. On RAR-γ [2], the “Transactivation RAR-γ % MAX” value was 0%. On RAR-γ [8], the pKd is 9.30. Also, the “Transactivation RAR-α % MAX” value at RAR-α [3] is 0%.

With `CC1(C)CC=C(C#Cc2ccccc2)c2cc(/C=C/c3ccc(C(=O)O)cc3)ccc21` [Compound 5, (E)-4-[[(5,6-dihydro-5,5-dimethyl-8-phenylethynyl)-2-naphthalenyl]ethenl]benzoic acid], in the test with C57BL/KsJ mice (0.01% and 0.1%, dose-dependent, FIG. 4), the “Amount of endothelial cells (anti-PECAM-1 staining)” value is on record as “increased amounts of endothelial cells; also recorded: higher amounts of endothelial cells”. For the same molecule, the “Number of blood vessels under the flap (histology, H&E)” value with C57BL/KsJ mice (lower dose group, FIG. 3 center panel) was “increase in the number of blood vessels”; in the test on C57BL/KsJ mice (single application, 0.01% and 0.1%, one and two weeks, vs ethanol vehicle, FIG. 3), “increased angiogenesis; also recorded: significantly higher numbers of blood vessels”. Also, the pKd was 8.38 on RAR-α [4], 8.54 on RAR-β [9] and 7.01 at RAR-γ [8]. Moreover, the values for the negative-log IC50 (pIC50) on RAR-α [5], at RAR-γ [6] and at RAR-β [7] were 6.70, 6.52 and 6.52, respectively. Moreover, on RAR-α [5], the “Competition RAR-α % MAX” value worked out at 100%. Also, the “Competition RAR-γ % MAX” value on RAR-γ [6] turned out to be 100%. On RAR-β [1] (HeLa cells, 24 hours), the “Transactivation RAR-β % MAX” value is 0%. The “Competition RAR-β % MAX” value on RAR-β [7] is 100%. For the same molecule, the “Transactivation RAR-γ % MAX” value on RAR-γ [2] is reported as 0%. Also, the “Binding to RARγ relative to Compound 4” value on RAR-γ [8] (comparison of Kd values) is “approximately two orders weaker”. The “Transactivation RAR-α % MAX” value at RAR-α [3] came out at 0%.

Consider `CC1(C)CC=C(c2ccc3ccccc3c2)c2cc(/C=C/c3ccc(C(=O)O)cc3)ccc21` [Compound 6, (E)-4-[2-[5,6-dihydro-5,5-dimethyl-8-(2-naphthalenyl)-2-naphthalenyl]ethenyl]-benzoic acid], for which the pKd on RAR-α [4] is 8.70; on RAR-β [9], 7.24; on RAR-γ [8], 7.62. In addition, the pIC50 at RAR-α [5] was 6.52; at RAR-γ [6], 6.05; at RAR-β [7], 6.30. The “Competition RAR-α % MAX” value at RAR-α [5] is given as 100%. Further, the “Competition RAR-γ % MAX” value on RAR-γ [6] worked out at 100%. For the same molecule, the “Transactivation RAR-β % MAX” value at RAR-β [1] (HeLa cells, 24 hours) is given as 0%. Moreover, at RAR-β [7], the “Competition RAR-β % MAX” value came to 100%. In addition, the “Transactivation RAR-γ % MAX” value on RAR-γ [2] was determined as 0%. For the same molecule, the “Transactivation RAR-α % MAX” value at RAR-α [3] is 0%.

With `COc1ccc(C2=CCC(C)(C)c3ccc(/C=C/c4ccc(C(=O)O)cc4)cc32)cc1` [Compound 7, (E)-4-[2-[5,6-dihydro-5,5-dimethyl-8-(4-methoxyphenyl)-2-naphthalenyl]ethenyl]benzoic acid], the negative-log Kd (pKd) on RAR-α [4] was 8.89; on RAR-β [9], 8.21; at RAR-γ [8] it was 8.59. Also, the values for the negative-log IC50 (pIC50) on RAR-α [5], on RAR-γ [6] and on RAR-β [7] were 6.40, 6.00 and 6.00, respectively. The “Competition RAR-α % MAX” value at RAR-α [5] is 100%. The “Competition RAR-γ % MAX” value at RAR-γ [6] came out at 100%. The “Transactivation RAR-β % MAX” value at RAR-β [1] (HeLa cells, 24 hours) came out at 0%. The “Competition RAR-β % MAX” value on RAR-β [7] turned out to be 100%. Moreover, the “Transactivation RAR-γ % MAX” value at RAR-γ [2] is given as 0%. Further, at RAR-α [3], the “Transactivation RAR-α % MAX” value was found to be 0%.

As for `CC1(C)CC=C(c2ccccc2)c2cc(/C=C/c3ccc(C(=O)O)cc3Cl)ccc21` [Compound 8, (E)-3-chloro-4-[2-(5,6-dihydro-5,5-dimethyl-8-phenyl-2-naphthalenyl)ethenyl]benzoic acid], the pKd at RAR-α [4] was 6.70; at RAR-β [9], 8.55; at RAR-γ [8] it was 6.61. Moreover, the pIC50 is 5.52 at RAR-α [5] and 5.70 at RAR-γ [6]. Moreover, at RAR-α [5], the “Competition RAR-α % MAX” value is listed as 80%. The “Competition RAR-γ % MAX” value on RAR-γ [6] amounted to 80%. The “Transactivation RAR-β % MAX” value at RAR-β [1] (HeLa cells, 24 hours) was found to be 110%. Further, the pEC50 on RAR-β [1] (HeLa cells, 24 hours, 50% of the effect of 10^−6 M t-RA) was 8.00. Moreover, the “Competition RAR-β % MAX” value at RAR-β [7] stood at 0%. Moreover, at RAR-γ [2], the “Transactivation RAR-γ % MAX” value is reported as 0%. In addition, at RAR-α [3], the “Transactivation RAR-α % MAX” value came to 0%.
